# Patent US6713051B2, “Antiperspirant or deodorant compositions” (Unilever Home & Personal Care USA division of Conopco, Inc., priority 2001, dated 2004)
# Tests used:
# [1] = tested on: Transglutaminase (TGase); experiment: Keratinocyte transglutaminase (TGase) assay; assay type: cell-based, human; details: for TGase/ng DNA: 4 days, 30 μM Ca2+, control (0 μM) 16.82
# Method: (§1) Human foreskin keratinocytes (passage 3) were seeded at 4000 cells/well in 96 well plates in Keratinocyte Growth Medium (abbreviated to KGM) containing 0.03 mM calcium and grown for 3 days at 37° C. The cells were then treated with PPAR ligands in KGM containing 0.03 mM calcium for 4 days prior to harvest. Stock solutions of PPAR ligands were dissolved in dimethylsulphoxide (DMSO) and diluted in KGM before adding to the cells. […] The harvested cells were washed 3× in phosphate buffered saline (PBS) and extracted in 1% Triton X100, 50 mM (tris[hydroxymethyl]aminomethane) (Tris) pH 8.0 plus protease inhibitors pepstatin and leupeptin (100 μl/well). The extract was assayed for DNA content using the Pico Green DNA assay (Molecular Probes, Inc.).
# The remaining cell debris attached to the 96 well plate was incubated with 70 μl/well of TGase assay buffer (50 mM Tris™ pH 8.0, 5 mM DTT, 50 mM CaCl2, 150 mM NaCl, 15 μM Texas Red Cadaverine) and incubated for 16 hours at 37° C. The plates were then washed with distilled water (×2) and the fluorescence due to cross-linked Texas Red cadaverine was determined using excitation at 590 nm and emission of 645 nm.
# Cultured keratinocytes were treated with cis-9-trans-11-conjugated linoleic acid (CT-CLA) for 4 days. The cells were extracted with Tris-1% Triton X100™ and the non-extractable TGase activity associated with the cells was determined using Texas Red Cadaverine (in accordance with the methods described above).
# [2] = target: T1, human PPARα (Homo sapiens, UniProt Q07869); experiment: PPARα reporter gene assay (firefly luciferase, transiently transfected Cos-7 cells); assay type: cell-based; details: for Result (superior activity class achieved): class reached; for Pass at (lowest tested administration level at which the test material passed): pass = activation greater than oleic acid at 100 μM, commonly >1.57 times vehicle control, 24 h treatment
# T1 construct: The coding region of a human PPARα cDNA was inserted downstream of the CMV promoter; expressed in transfected cells; host or cells: Cos-7 cells, transient transfection (pcDNA3.1(−)-PPARα, pRSV-RXRα, 3xPPRE-TK-luc reporter, pRL-TK)
# T1 sequence (Q07869 1-468): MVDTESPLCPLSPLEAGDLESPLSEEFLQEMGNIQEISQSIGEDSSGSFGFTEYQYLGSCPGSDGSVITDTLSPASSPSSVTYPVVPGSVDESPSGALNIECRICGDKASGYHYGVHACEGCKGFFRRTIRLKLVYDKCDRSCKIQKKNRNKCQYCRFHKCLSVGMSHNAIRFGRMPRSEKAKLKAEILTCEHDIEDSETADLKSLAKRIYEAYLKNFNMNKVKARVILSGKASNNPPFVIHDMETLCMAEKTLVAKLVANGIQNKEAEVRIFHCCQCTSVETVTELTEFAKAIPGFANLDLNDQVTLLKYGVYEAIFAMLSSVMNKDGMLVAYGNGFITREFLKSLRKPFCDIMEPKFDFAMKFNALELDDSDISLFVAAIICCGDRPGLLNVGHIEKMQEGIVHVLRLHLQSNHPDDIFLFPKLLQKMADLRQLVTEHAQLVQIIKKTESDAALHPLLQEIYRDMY
# T1 sequence (P19793 1-462 partner): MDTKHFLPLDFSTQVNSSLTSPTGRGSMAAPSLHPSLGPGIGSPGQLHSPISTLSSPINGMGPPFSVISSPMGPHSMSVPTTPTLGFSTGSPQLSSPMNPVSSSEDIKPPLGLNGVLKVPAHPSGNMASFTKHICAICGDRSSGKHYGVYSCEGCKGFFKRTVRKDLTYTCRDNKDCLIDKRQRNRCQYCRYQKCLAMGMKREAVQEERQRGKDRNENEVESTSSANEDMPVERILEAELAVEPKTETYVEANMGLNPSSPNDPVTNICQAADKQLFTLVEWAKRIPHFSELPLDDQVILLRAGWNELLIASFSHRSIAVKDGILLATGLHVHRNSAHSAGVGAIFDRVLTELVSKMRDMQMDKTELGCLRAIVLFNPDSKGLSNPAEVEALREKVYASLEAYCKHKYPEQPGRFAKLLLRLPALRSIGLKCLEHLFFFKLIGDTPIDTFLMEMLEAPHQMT
# Excerpt: One convenient reporter assay for determining whether a fatty acid material is PPARα activating is based upon the firefly luciferase gene.
# Fatty acids were screened to identify PPAR activating fatty acids using a reporter assay.
# This assay relied on ligands binding to and activating the PPARα protein, which, in turn, activated genes under the control of PPAR response elements (PPRE). In the assay, the firefly luciferase gene was cloned behind a promoter containing 3 copies of the fatty acid binding protein PPRE.
# The assay was performed by transient transfection of Cos-7 cells with a mixture of four DNA plasmids. These were:
# 1) PPAR reporter gene construct (Modified pNF-KB-luc reporter vector (Firefly luciferase reporter vector commercially available form Clontech (NF-kB response element, TK minimal promoter, luc^+, f1 origin, pUC origin, amp^r)). A tandem repeat of 3 PPAR response elements (PPREs) corresponding to the PPRE found in the fatty acid binding protein promoter was inserted upstream of the minimal TK promoter to replace the NF-κB response element);
# 2) 2) Over-expressing PPARα construct (Modified pcDNA3.1(−) vector (A mammalian expression vector commercially available from Invitrogen (CMV promoter, f1 origin, SV40 origin, ColE1 origin, neo^r, amp^r)). The coding region of a human PPARα cDNA was inserted downstream of the CMV promoter of pcDNA3.1 (−)). […] The coding region of a human RXRα cDNA has been inserted downstream of the RSV promoter. (Gift of V. K. K. Chatterjee, Addenbrooke's Hospital, Cambridge)) 4) Control luciferase construct (pRL-TK Renilla luciferase reporter vector commercially available from Promega (HSV-TK promoter, T7 promoter, Rluc^+, ori, amp^r)). For the transfection, DNA was made up as a mix of PPAR reporter gene: PPARα: RXRα: control in the ratio 40:4:3:3.
# Cos-7 cells were grown in Dulbecco's modified Eagle's Medium, also herein referred to as DMEM with 10% foetal calf serum, herein also referred to as FCS at 37° C., 5% CO2 to 80% confluency. Cells were then plated out in 24 well plates at 50,000 cells per well and incubated overnight in DMEM with 10% FCS at 37° C., 5% CO2. Cells were then transfected using the LipofectAMINE reagent (GibcoBRL). For each well 0.4 μg of DNA mix (in 25 μl of DMEM) was incubated with 1 μl LipofectAMINE (in 25 μl of DMEM) for 45 minutes. The mixture was then made up to 250 μl per well and added to the cells, which had been washed with 1 ml of DMEM. Cells were then incubated for 5 hours at 37° C., 5% CO2 and 250 μl DMEM with 10% SBCS (charcoal stripped bovine calf serum) added. Cells were incubated for 18 hours at 37° C., 5% CO2 before being treated with the appropriate compound/extract. Test compounds were made up as 1000× stocks (in DMSO or ethanol as appropriate) and diluted into DMEM with 10% SBCS (500 μl per well) immediately before being added to cells. Each treatment was performed in triplicate. The transfection mix was removed from the cells and replaced with the treatment mix, and incubated for 24 hours at 37° C., 5% CO2. Cells were washed with 1 ml of PBS (without calcium or magnesium) and then lysed with 100 μl per well of 1× Passive Lysis Buffer (as supplied with Promega Dual Luciferase assay kit). Lysis was allowed to continue for 15 minutes and then the lysate was assayed for Firefly and Renilla luciferase activity using the Promega Dual Luciferase assay kit. For the assay, 20 μl of lysate was taken and assayed as described in the kit instructions using a MLX microtiter™ plate luminometer (Dynex).
# Firefly luciferase activity (PPAR driven) was normalised against the Renilla luciferase value for that well and the mean calculated for the three wells treated with the same agent. Activity was then expressed as fold activation over the vehicle (DMSO or ethanol) control values for that particular plate.
# [3] = tested on: Human foreskin keratinocytes; experiment: Keratinocyte proliferation analysis (DNA content per well, Pico Green); assay type: cell-based; details: for keratinocyte DNA synthesis activity, statement: 1 way ANOVA, p<0.05; for DNA: 4 days
# Method: as §1
# Cultured keratinocytes were treated with cis-9-trans-11 conjugated linoleic acid (CT-CLA) for 4 days. The cells were extracted with Tris-1% Triton X100 and the DNA content per well was determine by the Pico Green assay in accordance with the above described procedure.
# [4] = tested on: Human foreskin keratinocytes; experiment: Keratinocyte cornified envelope assay; assay type: cell-based; details: for Cornified envelopes assay: 4 days, control (0 μM) 17996
# Method: as §1
# After Tris-triton extraction for TGase assay, the cells were extracted with 100 μl/well of 2% SDS, 20 mM DTT for 16 hours at 60° C. Once extracted the SDS suspension from each well was individually filtered through polyviylidenefluoride (PVDF) membrane (Immobilon-P™ Transfer Membrane, Millipore) which had been pre-blocked in Tris Buffered Saline (TBS) containing 0.5% (v/v) Tween 20, 0.5% using a Dot Blot TM Apparatus (Bio-Rad). Each sample was washed several times with TBS/Tween buffer before the membrane was removed from the apparatus, rinsed in distilled water and silver stained using silver stain kit (Bio-Rad). The stained dot blot membrane was scanned and analysed using Phoretix Array™ software.
# Cultured keratinocytes were treated with pinoleic acid for 4 days. The cells were extracted with 2% SDS, 20 mM DTT and the cornified envelopes were quantified, after filtration using a PDVF membrane, by silver staining, as described above.
compound,measurement,setting,value
"CCCCCC/C=C/C=C\CCCCCCCC(=O)O [CLA (c9, t11), cis-9-trans-11 conjugated linoleic acid]",TGase/ng DNA,[1]; 0.1 μM,18.30
same,TGase/ng DNA,[1]; 1 μM,18.46
same,TGase/ng DNA,[1]; 10 μM,28.07
same,"keratinocyte TGase activity, statement","[1]; 1 way ANOVA, p<0.05",significantly increase
same,Result at (lowest administration level at which super or MS activity was achieved),[2],25 μm
same,Result (superior activity class achieved),[2],super (superior activity [super] (50% higher—at least 2.25 times PPARα activation))
same,Pass at (lowest tested administration level at which the test material passed),[2],10 μm
same,"keratinocyte DNA synthesis activity, statement",[3]; Example 10: 10 μM,significantly reduce
same,DNA,"[3]; Table 11: 0.1 μM, control (0 μM) 92.17",81.83 ng/well
same,DNA,"[3]; Table 11: 1 μM, control (0 μM) 92.17",81.33 ng/well
same,DNA,"[3]; Table 11: 10 μM, control (0 μM) 92.17",59.50 ng/well
hexadecatrienoic acid,"cornified envelope formation, statement","[4]; Example 9: 1-10 μM, 1 way ANOVA, p<0.05",significantly increase
same,Cornified envelopes assay,[4]; Table 10: 0.1 μM,17617 arb. Units
same,Cornified envelopes assay,[4]; Table 10: 1 μM,36017 arb. Units
same,Cornified envelopes assay,[4]; Table 10: 10 μM,40997 arb. Units
same,Result at (lowest administration level at which super or MS activity was achieved),[2],10 μm
same,Result (superior activity class achieved),[2],super (superior activity [super] (50% higher—at least 2.25 times PPARα activation))
same,Pass at (lowest tested administration level at which the test material passed),[2],10 μm
same,"keratinocyte DNA synthesis activity, statement",[3]; Example 14: 0.1-10 μM,significantly reduce
same,DNA,"[3]; Table 15: 0.1 μM, control (0 μM) 1.66",0.98 ng/well
same,DNA,"[3]; Table 15: 1 μM, control (0 μM) 1.66",1.27 ng/well
same,DNA,"[3]; Table 15: 10 μM, control (0 μM) 1.66",1.13 ng/well
